Assay results taken from patent US6083969A, “1,3- and 2,3-diarylcycloalkano and cycloalkeno pyrazoles as selective inhibitors of cyclooxygenase-2 and antiinflammatory agents” (Ortho-McNeil Pharaceutical, Inc., priority 1999, dated 2000).

Assays:
COX-1 = target: T1, COX-1 (Homo sapiens, UniProt P23219); assay: Human platelet thromboxane B2 production (via COX-1); format: cell-based; conditions: human platelets, TXB2 production; read-out: P5: COX 1 Human Platelet IC50
T1 construct: Remove the platelet-rich plasma (PRP) and dilute the PRP 1:20 with 0.9% NaCl; endogenous in cells; host or cells: human platelets (platelet-rich plasma of one volunteer)
T1 sequence (P23219 24-599): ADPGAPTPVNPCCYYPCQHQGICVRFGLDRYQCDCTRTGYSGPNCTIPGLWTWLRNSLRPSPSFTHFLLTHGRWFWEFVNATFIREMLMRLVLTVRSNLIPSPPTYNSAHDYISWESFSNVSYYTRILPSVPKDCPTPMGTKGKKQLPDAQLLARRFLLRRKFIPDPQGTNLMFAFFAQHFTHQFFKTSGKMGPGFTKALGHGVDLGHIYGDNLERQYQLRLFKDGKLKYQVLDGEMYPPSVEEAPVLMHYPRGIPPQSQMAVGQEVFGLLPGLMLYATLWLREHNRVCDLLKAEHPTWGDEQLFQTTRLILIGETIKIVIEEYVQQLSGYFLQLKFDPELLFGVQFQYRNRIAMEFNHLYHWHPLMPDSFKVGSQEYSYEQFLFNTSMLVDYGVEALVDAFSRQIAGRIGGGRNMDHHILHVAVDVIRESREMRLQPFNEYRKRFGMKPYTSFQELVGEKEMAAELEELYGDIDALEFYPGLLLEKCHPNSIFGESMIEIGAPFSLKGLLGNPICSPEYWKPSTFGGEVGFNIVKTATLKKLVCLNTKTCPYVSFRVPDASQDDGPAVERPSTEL
Description: HUMAN […] THROMBOXANE B2 PRODUCTION (via COX-1)
Procedure 5 was used to determine thromboxane B2 (TXB2) production (via COX-1) in human platelets as follows:
Draw blood from one volunteer into heparinized tubes then spin at RT for 15 to 20 minutes at 1,000 RPM. Remove the platelet-rich plasma (PRP) and dilute the PRP 1:20 with 0.9% NaCl containing 14.4U heparin/mL. Add 180 μL of the diluted PRP to each well of a 96-well plate and incubate at 37° C. for 5 minutes. Then add 20 μL vehicle (HBSS with 1% DMSO) or drug and incubate for 15 minutes at 37° C. Add 10 μl calcium ionophore and incubate 15 minutes at 37° C. Stop the reaction on slush ice for 5 minutes and assay supernatants immediately for TXB2 production via RIA or EIA.
Prepare all drugs at 10 mM in DMSO by diluting the drug in HBSS at a 1.100 ratio with 1% DMSO to 100 μM. Add 20 μl to PRP (1:10 ratio) to obtain 10 μM final concentration. The calcium ionophore is prepared by using 7 mg/mL free acid calcium ionophore in DMSO, which is warmed until the ionophore goes into solution. Just prior to use, dilute the solution 1:25 with HBSS.

[1] = target: T2, human prostaglandin H2 synthase type II (COX-2) (Homo sapiens, UniProt P35354); assay: Human prostaglandin H2 synthase type II (COX-2) whole cell assay (ECV-304 cells, PGE2 by radioimmunoassay); format: cell-based; set-up: endogenous in cells; host or cells: ECV-304; conditions: for IC50: read-out: P2: COX 2 Whole Cell IC50; for inhibition at 10 µM / inhibition at 3 µM: read-out: P1: COX 2 Whole Cell % Inhibition; for inhibition at 3 µM: @3 μM (superscript a)
T2 sequence (P35354 18-604): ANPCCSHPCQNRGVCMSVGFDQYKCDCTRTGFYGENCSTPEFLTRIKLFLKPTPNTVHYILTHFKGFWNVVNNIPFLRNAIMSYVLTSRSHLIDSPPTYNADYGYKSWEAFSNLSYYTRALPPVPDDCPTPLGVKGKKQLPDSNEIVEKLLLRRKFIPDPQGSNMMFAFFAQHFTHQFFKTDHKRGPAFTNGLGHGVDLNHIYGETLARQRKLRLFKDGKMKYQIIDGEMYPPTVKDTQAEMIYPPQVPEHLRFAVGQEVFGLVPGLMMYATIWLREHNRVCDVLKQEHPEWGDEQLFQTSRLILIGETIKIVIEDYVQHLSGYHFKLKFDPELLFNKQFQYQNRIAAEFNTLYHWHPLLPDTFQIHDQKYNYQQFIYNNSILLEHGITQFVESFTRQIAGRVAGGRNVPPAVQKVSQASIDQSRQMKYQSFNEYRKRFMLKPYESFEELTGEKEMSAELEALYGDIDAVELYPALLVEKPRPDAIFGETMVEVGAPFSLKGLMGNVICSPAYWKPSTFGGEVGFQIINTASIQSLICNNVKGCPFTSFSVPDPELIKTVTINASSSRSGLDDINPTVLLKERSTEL
Description: HUMAN PROSTAGLANDIN H2 SYNTHASE TYPE II (COX-2) WHOLE CELL ASSAY (MULTIPLE CONCENTRATIONS)
Procedures 1 and 2 were used to determine the ability of the compounds to inhibit human prostaglandin H2 synthase type II (COX-2) in a whole cell assay at multiple concentrations as follows:
Approximately 28 h later, […] PMA and […] ionomycin (both final concentrations) are added to each well and incubated for an additional 16 h. Vehicle or test compounds in the amount of […] are incubated with the cells for five minutes prior to initiation of COX-2 enzyme activity by the addition of 30 μM arachidonic acid. Ten minutes later, an aliquot of the supernatant is withdrawn and the amount of PGE2 present quantitated by radioimmunoassay. Activity, reported as percent inhibition of PGE2 produced, is calculated as follows: [formula]

[2] = target: T2, human prostaglandin H2 synthase type II (COX-2); assay: Human prostaglandin H2 synthase type II (hCOX-2) homogenate assay (transfected COS-7 cells, PGE2 formation); format: biochemical; set-up: expressed in transfected cells; host or cells: COS-7 (African Green Monkey Kidney); conditions: COS-7 homogenate; read-out: P4: COX 2 Homogenized Cell IC50
Description: HUMAN PROSTAGLANDIN H2 SYNTHASE TYPE II (hCOX-2) HOMOGENATE ASSAY (SINGLE CONCENTRATION)
Procedures 3 and 4 were used to assess COX-2 activity in a homogenized cell assay as follows:
(§1) COS-7 (African Green Monkey Kidney) cells are maintained in a suitable medium, and are trypsinized and plated at a density of 1×10^6 cells/well of a 6 well plate prior to assay. Approximately 24 hours later, cells are transiently transfected with a plasmid containing the human COX-2 gene using the lipofectamine method. Two days later, the cell-free homogenate is prepared by subjecting the cells to a polytron followed by centrifugation at 9,000×g. COX activity, initiated by the addition of […] arachidonic acid to the 9,000×g supernatant, is monitored in the presence of vehicle or drug. Product (PGE2) formation is quantitated by radioimmunoassay. Activity, reported as percent inhibition of PGE2 produced, is calculated as follows: [formula]

[3] = target: T3, human prostaglandin H2 synthase type I (COX-1) (Homo sapiens, UniProt P23219); assay: Human prostaglandin H2 synthase type I (COX-1) homogenate assay (transfected COS-7 cells, PGE2 formation); format: biochemical; conditions: @10 μM; COS-7 homogenate; read-out: P6: COX 1 Homogenized Cell % Inhibition
T3 construct: expressed in transfected cells; host or cells: COS-7 (African Green Monkey Kidney)
T3 sequence (P23219 24-599): as the sequence (P23219 24-599) above
Description: HUMAN PROSTAGLANDIN H2 SYNTHASE--TYPE I (COX-1) HOMOGENATE ASSAY (SINGLE CONCENTRATION)
Procedures 6 and 7 were used to assess COX-1 activity in a homogenized cell assay as follows:
as §1, with “COX-1” for “COX-2”

SMILES	IC50 (COX-1)	IC50 [1]	further results
CS(=O)(=O)c1ccc(-n2nc3ccccc3c2-c2ccc(Cl)cc2)cc1 [Example 32d]	16 µM	970 nM	–
CS(=O)(=O)c1ccc(-n2nc3c(c2-c2ccc(F)cc2)CC2(CC3)OCCO2)cc1 [Example 30b]	–	> 10000 nM	IC50 [2]: 21.7 µM
CS(=O)(=O)c1ccc(-c2c3ccccc3nn2-c2ccc(F)cc2)cc1 [Example 32e]	> 10 µM	320 nM	–
COc1ccc(-n2nc3c(c2-c2ccc(F)cc2)CCCCC3)cc1 [Example 13-1g]	–	3640 nM	IC50 [2]: 8.1 µM
CS(=O)(=O)c1ccc(-n2nc(-c3ccc(C(F)(F)F)cc3)c3c2C=CCC3)cc1 [Example 32g]	> 10 µM	> 10000 nM	–
c1ccc(-c2nn(-c3ccccc3)c3c2CCCCC3)cc1 [Example 7, 1,3-Diphenyl-4,5,6,7,8,-[5H]cycloheptano-[1,2-d]-pyrazole]	0.12 µM	170 nM	–
c1ccc(-c2nn(-c3ccccc3)c3c2CCCC3)cc1 [Example 6, 1,3-Diphenyl-cyclohexa-[1,2-d]-pyrazole]	0.49 µM	570 nM	–
Cc1ccc(-n2nc3c(c2-c2ccc(Cl)cc2)CCCCC3)cc1 [Example 13-1e]	10 µM	1220 nM	–
COc1ccc(-c2nn(-c3ccccc3)c3c2CCCCC3)cc1 [Example 13-2b, 3-(4-Methoxy)-1-phenyl-cycloheptano-[1,2-d]-pyrazole]	10 µM	1240 nM	–
CS(=O)(=O)c1ccc(-n2nc3c(c2-c2ccc(Cl)cc2)CCCC3)cc1 [Example 30d]	> 10 µM	820 nM	–
CS(=O)(=O)c1ccc(-n2nc3c(c2-c2ccc(F)cc2)CCC=C3)cc1 [Example 5b]	–	4750 nM	–
CS(=O)(=O)c1ccc(-n2nc3c(c2-c2ccc(F)cc2)CCCCC3)cc1 [Example 13-1h]	–	10000 nM	–
CS(=O)(=O)c1ccc(-n2nc3c(c2-c2ccc(Cl)cc2)CCCCC3)cc1 [Example 13-1d]	> 10 µM	9410 nM	IC50 [2]: 1.5 µM
Fc1ccc(-n2nc(-c3ccc(Cl)cc3)c3c2CCCCC3)cc1 [Example 13-1b, 3-(4-Chlorophenyl)-1-(4-fluorophenyl)-cycloheptano-[1,2-d]-pyrazole]	> 10 µM	> 10000 nM	inhibition at 10 µM [1]: 59%
COc1ccc(-n2nc3c(c2-c2ccc(F)cc2)CC2(CC3)OCCO2)cc1 [Example 30c]	–	> 10000 nM	IC50 [2]: 20.3 µM
CS(=O)(=O)c1ccc(-n2nc(-c3ccc(Cl)cc3)c3c2C=CCC3)cc1 [Example 4a, 3-(4-Chlorophenyl)-4,5-dihydro-1-(4-methylsulfonylphenyl)-1H-indazole]	> 10 µM	> 10000 nM	inhibition at 10 µM [1]: 0%; inhibition at 10 µM [3]: 32%
CS(=O)(=O)c1ccc(-n2nc3c(c2-c2ccc(Cl)cc2)CCC(=O)C3)cc1 [Example 52b]	> 10 µM	1440 nM	–

SMILES	IC50 (COX-1)	IC50 [1]	further results
CS(=O)(=O)c1ccc(-n2nc3c(c2-c2ccc(Cl)cc2)CCC(O)C3)cc1 (stereo not shown) [Example 49d]	> 10 µM	10000 nM	–
Clc1ccc(-c2nn(-c3ccccc3)c3c2CCC3)cc1 [Example 3-1]	10 µM	2590 nM	–
Clc1ccc(-c2nn(-c3ccccc3)c3c2CCCC3)cc1 [Example 6-1b, 3-(4-Chlorophenyl)-4,5,6,7-tetrahydro-1-phenyl-1H-indazole]	10 µM	620 nM	–
CS(=O)(=O)c1ccc(-n2nc(-c3ccc(F)cc3)c3c2C=CCC3)cc1 [Example 32h]	–	–	inhibition at 3 µM [1]: 13%
CS(=O)(=O)c1ccc(-n2nc3c(c2-c2ccc(F)cc2)CCC2OC32)cc1 (stereo not shown) [Example 48e]	> 10 µM	6280 nM	–
Clc1ccc(-c2nn(-c3ccc(Cl)cc3)c3c2CCCCC3)cc1 [Example 13, 3-(4-Chlorophenyl)-1-(4-chlorophenyl)-cycloheptano-[1,2-d]-pyrazole]	–	10000 nM	inhibition at 10 µM [1]: 3%
Fc1ccc(-n2nc(-c3ccc(Cl)cc3)c3c2-c2c([nH]c4ccc(F)cc24)CC3)cc1 [Example 32f]	0.64 µM	6200 nM	–
Clc1ccc(-c2c3c(nn2-c2ccccc2)CCCCC3)cc1 [Example 13-1f]	5.5 µM	1380 nM	–
COc1ccc(-n2nc3c(c2-c2ccc(Cl)cc2)CCCCC3)cc1 [Example 13-1c]	> 10 µM	19500 nM	–
Clc1ccc(-c2nn(-c3ccccc3)c3c2CCCCC3)cc1 [Example 12, 3-(4-Chlorophenyl)-1-phenyl-cycloheptano-[1,2-d]-pyrazole]	1 µM	140 nM	inhibition at 10 µM [3]: 93%
CS(=O)(=O)c1ccc(-n2nc3c(c2-c2ccc(Cl)cc2)CCC2OC32)cc1 (stereo not shown) [Example 48d]	–	9580 nM	–
CS(=O)(=O)c1ccc(-n2nc(-c3ccc(Cl)cc3)c3c2CCCC3)cc1 [Example 30e]	–	–	inhibition at 3 µM [1]: 21%
CS(=O)(=O)c1ccc(-n2nc(-c3ccc(F)cc3)c3ccccc32)cc1 [Example 32i]	–	–	inhibition at 3 µM [1]: 12%
Clc1ccc(-c2nn(-c3ccc(Cl)cc3)c3c2CCC3)cc1 [Example 2, 1,3-Di-(4-Chlorophenyl)-cyclopenta-[1,2-d]-pyrazole]	–	–	inhibition at 10 µM [1]: 0%
CS(=O)(=O)c1ccc(-n2nc3c(c2-c2ccc(Cl)cc2)CCC=C3)cc1 [Example 4b]	> 10 µM	2330 nM	–
Clc1ccc(-c2c3c(nn2-c2ccccc2)CCCC3)cc1 [Example 6-1a, 3-(4-Chlorophenyl)-4,5,6,7-tetrahydro-2-phenyl-2H-indazole]	> 10 µM	570 nM	–
